Measurements from patent US20190062362A1, “METHOD FOR OBTAINING SURFACTANT COMPOSITIONS MADE FROM ALKYL-L-GULURONAMIDES” (ÉCOLE NATIONALE SUPÉRIEURE DE CHIMIE, priority 2015, published 2019).

How the values were obtained:
Experiment in all cases: Protocol A: agar deposit test, clarification zone
Assay type in all cases: cell-based
Enterococcus faecium = conditions: E. faecium; antibiotic disk
Method: (§1) The culture medium used was a mixture of 21 g/L of Muller-Hinton broth and 10 g/L of agar in water. This mixture was stirred and then left to boil. Next, a step of autoclaving of this mixture, for 30 minutes, was desired in this embodiment so as to sterilize it before any manipulation. This culture medium was poured hot into Petri dishes and then left to cool.
(§2) 5 mg of each modified sugar were dissolved in 1 mL of DMSO. Twofold serial dilution with DMSO was then performed using the stock solution, so as to obtain concentrations of 2.5 g/L, 1.25 g/L, 0.625 g/L and 0.3125 g/L.
(§3) The bacterial strains used were Pseudomonas aeruginosa, Escherichia Coli, Enterococcus faecium and Staphylococcus aureus, and also the fungal strain Candida albicans. 10^6 bacteria were taken and then transferred into 0.9% NaCl solution. Each Petri dish, containing Muller-Hinton medium, was flooded with a different bacterial suspension.
(§4) After allowing the bacterial suspensions to dry on the agar, 10 μL of each test solution, and at various concentrations, were deposited on the surface of the agar flooded with the bacterial suspension. 10 μL of DMSO were placed in each Petri dish as a negative control.
(§5) The positive controls used were disks soaked with ampicillin for Escherichia coli and Enterococcus faecium, ceftazidime disks for Pseudomonas aeruginosa and vancomycin disks for Staphylococcus aureus.
(§6) After drying, the Petri dishes were finally incubated at 37° C. in an oven, for 24 hours. The antibacterial activity was evaluated by measuring the clarification zone in millimeters around the point of deposition of the various test solutions.

Escherichia Coli = conditions: E. coli; for inhibitory activity on growth (in words): text summary of protocol A
Method: as §1, §2, §3, §4, §5, §6

Pseudomonas aeruginosa = conditions: P. aeruginosa; for inhibitory activity on growth (in words): text summary of protocol A
Method: as §1, §2, §3, §4, §5, §6

Staphylococcus aureus = conditions: S. aureus
Method: as §1, §2, §3, §4, §5, §6

Candida albicans = conditions: C. albicans; text summary of protocol A
Method: as §1, §2, §3
After allowing the bacterial suspensions to dry on the agar, 10 μL of each test solution, and at various concentrations, were deposited on the surface of the agar flooded with the bacterial suspension. […]
as §6

Compound: CC1(C)S[C@@H]2[C@H](NC(=O)[C@H](N)c3ccccc3)C(=O)N2[C@H]1C(=O)O [Ampicillin, reference compound]
- clarification zone, positive control (Enterococcus faecium): 26 mm
- clarification zone, positive control (Escherichia Coli; antibiotic disk): 22 mm

Compound: CC(C)(O/N=C(\C(=O)N[C@@H]1C(=O)N2C(C(=O)[O-])=C(C[n+]3ccccc3)CS[C@H]12)c1csc(N)n1)C(=O)O [Ceftazidime, reference compound]
- clarification zone, positive control (Pseudomonas aeruginosa; antibiotic disk): 28 mm

Compound: CN[C@H](CC(C)C)C(=O)N[C@H]1C(=O)N[C@@H](CC(N)=O)C(=O)N[C@H]2C(=O)N[C@H]3C(=O)N[C@H](C(=O)N[C@H](C(=O)O)c4cc(O)cc(O)c4-c4cc3ccc4O)[C@H](O)c3ccc(c(Cl)c3)Oc3cc2cc(c3O[C@@H]2O[C@H](CO)[C@@H](O)[C@H](O)[C@H]2O[C@H]2C[C@](C)(N)[C@H](O)[C@H](C)O2)Oc2ccc(cc2Cl)[C@H]1O [Vancomycin, reference compound]
- clarification zone, positive control (Staphylococcus aureus; antibiotic disk): 19 mm

Compound: N-(12 dodecyl)-n-butyl L-guluronamide
- inhibitory activity on growth (in words) (Pseudomonas aeruginosa): neither the N-(12 dodecyl)-n-butyl L-guluronamide nor the N-(18 octadecyl)-n-butyl L-guluronamide (whether in furanose or pyranose form) showed any inhibitory activity
- inhibitory activity on growth (in words) (Escherichia Coli): neither the N-(12 dodecyl)-n-butyl L-guluronamide nor the N-(18 octadecyl)-n-butyl L-guluronamide (whether in furanose or pyranose form) showed any inhibitory activity

Compound: N-(18 octadecyl)-n-butyl L-guluronamide
- inhibitory effect (in words) (Candida albicans): no inhibitory effect
- inhibitory activity on growth (in words) (Pseudomonas aeruginosa): neither the N-(12 dodecyl)-n-butyl L-guluronamide nor the N-(18 octadecyl)-n-butyl L-guluronamide (whether in furanose or pyranose form) showed any inhibitory activity
- inhibitory activity on growth (in words) (Escherichia Coli): neither the N-(12 dodecyl)-n-butyl L-guluronamide nor the N-(18 octadecyl)-n-butyl L-guluronamide (whether in furanose or pyranose form) showed any inhibitory activity
- inhibitory effect (in words) (Staphylococcus aureus; text summary of protocol A): no inhibitory effect
